In patent US6297250A, “Pyrimidopyrimidine compounds” (Newcastle University Ventures Limited, priority 1997, dated 2001):
Several values for one entry are separate records, joined by “and”; a condition that tells them apart may be missing. Equal values may be shown once. Read-outs that look alike come from different tables or passages of the source.

System: L1210 cells
Assay: Nucleoside transport inhibition assay: inhibition of 3H-thymidine uptake, with or without AGP or HSA
Assay type: cell-based, murine
Conditions: for inhibition at 10 µM: L1210, 10 μM compound; for inhibition at 100 µM: L1210, 100 μM compound; for inhibition at 0.25 µM: L1210, 0.25 μM compound; for inhibition at 1 µM: L1210, 1 μM compound; for Effect of AGP on the inhibition of thymidine uptake: in words; for inhibition at 0.1 µM: L1210, 0.1 μM compound; for % Inhibition of 3H-thymidine uptake, +5 mg/ml AGP: compound concentration not assignable from the table
Method: In vitro activity. […] For testing the compounds an established nucleoside transport assay involving measurement of thymidine uptake was adapted. Murine leukaemia L1210 cells were used in this assay as their nucleoside transport characteristics are well known. This assay for measuring thymidine uptake used a modification of the rapid mixing technique of Wohleheuter, R. […] Materials used included a transport buffer comprising 130 mM NaCl, 5 mM KC1, 1 mM MgCl, 5 mM NaH2 PO4, 10 mM glucose and 10 mM HEPES. This buffer was made up as sterile 5× concentrate and reconstituted in distilled water and adjusted to pH 7.4 immediately prior to carrying out the assay. […] The supernatant was aspirated and the cells were washed with ice-cold transport buffer and centrifuged again at 1000 rpm for 5 minutes at 4° C. The supernatant was removed and the cells were resuspended in ice-cold transport buffer to give a final cell density of 2-4×10^7 cells/mi. Cells were left on ice for 30 minutes recovery prior to starting the assay. […] The suspension was mixed well and 100 μl was layered onto 150 μl silicone oil (9:11 Dow Corning 556 (Sp.Gr. 0.98):Dow Corning 550 (Sp.Gr. 1.068) (final Sp.Gr. 1.028) overlaying 50 μl 3M KOH in 6 replicate 0.5 ml microfuge tubes. […] The tubes were immediately transferred to a microfuge (Eppendorf) and spun at 12000 rpm for 2 minutes to pellet the cells through the oil and into the KOH. The tubes were capped and the cells left to solubilise in the KOH for 1 hour. Cell number and viability for each run was determined by haemocytometer counting using trypan blue exclusion. […] The tubes were capped and cut in the oil layer such that the bottom portion (cells solubilised in KOH) fell into a 20 ml scintillation vial. 1 ml 0.25M acetic acid followed by 1 ml air was injected into the tube using a 2 ml syringe and 23-gauge needle to disperse and neutralise the KOH-solubilisedcells. 10 ml of Optiphase HiSafe™ scintillant was added and the vials capped and shaken. […] The [^14 C]:[^3 H] ratio was used to calculate the amount of non-transported contaminating [^3 H]thymidine in the extracellular space.

[1] = Mus musculus, no AGP, 5% DMSO, read-out: % Inhibition of 3H-thymidine uptake, No AGP (5% DMSO)
[2] = Mus musculus, no AGP, read-out: % Inhibition of 3H-thymidine uptake, No AGP
[3] = 0.1 μM compound, no AGP, 0.1 µM
[4] = Mus musculus, +5 mg/ml AGP vs no AGP, read-out: % Reduction (of inhibition by AGP)
[5] = Mus musculus, +5 mg/ml AGP, read-out: % Inhibition of 3H-thymidine uptake, +5 mg/ml AGP

C=CCOc1nc(N2CCCCC2)c2nc(OCC=C)nc(N3CCCCC3)c2n1 [NU3072, 2,6-Di-allyloxy-4,8-dipiperidinopyrimidopyrimidine]
% Inhibition of 3H-thymidine uptake, No AGP (5% DMSO) (100 μM compound, no AGP, 5% DMSO, 100 µM): 63% | inhibition at 10 µM [1]: 52 ± 7% | inhibition at 100 µM [1]: 66%

COc1ccc(CNc2nc(OCC(C)O)nc3c(NCc4ccc(OC)cc4)nc(OCC(C)O)nc23)cc1 (centres unmarked) [NU3087, 2,6-Di(2'-hydroxypropoxy)-4,8-bis(4'-methoxybenzylamino)pyrimidopyrimidine]
inhibition at 0.25 µM (Mus musculus, +0.125 mg/ml AGP vs no AGP, read-out: % Reduction (of inhibition by AGP)): 0% | inhibition at 0.25 µM (Mus musculus, +0.125 mg/ml AGP, read-out: % Inhibition of 3H-thymidine uptake, +0.125 mg/ml AGP): 20 ± 2% | inhibition at 0.25 µM [2]: 17% | inhibition at 1 µM [2]: 68 ± 14% | IC50 (Mus musculus, L1210, no AGP): ~300 nM | Effect of AGP on the inhibition of thymidine uptake: no significant reduction

CCOc1nc(N2CCCCC2)c2nc(OCC)nc(N3CCCCC3)c2n1 [NU3068, 2,6-Diethoxy-4,8-dipiperidinopyrimidopyrimidine]
% Inhibition of 3H-thymidine uptake, No AGP (5% DMSO) (50 μM compound, no AGP, 5% DMSO, 50 µM): 65% | inhibition at 10 µM [1]: 35 ± 4% | inhibition at 50 µM (Mus musculus, L1210, 50 μM compound, no AGP, 5% DMSO): 74%

COc1ccc(CN(C)c2nc(N(CCO)CCO)nc3c(N(C)Cc4ccc(OC)cc4)nc(N(CCO)CCO)nc23)cc1 [NU3102, 2,6-bis-Diethanolamino-4,8-di-(N-[4-methoxybenzyl]-N-methyl)aminopyrimidopyrimidine]
% Inhibition of 3H-thymidine uptake, No AGP [3]: 20% | % Inhibition of 3H-thymidine uptake, No AGP (1 μM compound, no AGP, 1 µM): 57% | % Inhibition of 3H-thymidine uptake, No AGP (10 μM compound, no AGP): insoluble | inhibition at 0.1 µM (Mus musculus, no AGP): 23% | inhibition at 1 µM [2]: 51% | IC50 (Mus musculus, L1210, no AGP): 980 nM | IC50 (no AGP): 840 nM

COc1ccc(CN(C)c2nc(OCCCO)nc3c(N(C)Cc4ccc(OC)cc4)nc(OCCCO)nc23)cc1 [NU3100, 2,6-Di-(3-hydroxypropoxy)-4,8-di-(N-[4-methoxybenzyl]-N-methyl)aminopyrimidopyrimidine]
inhibition at 1 µM [2]: 88% | IC50 (Mus musculus, L1210, no AGP): 190 nM

COCCOc1nc(NCc2ccccc2)c2nc(OCCOC)nc(NCc3ccccc3)c2n1 [NU3095, 2,6-di(-2-methoxyethoxy)-4,8-dibenzylaminopyrimidopyrimidine]
inhibition at 1 µM [2]: 31.2% | inhibition at 10 µM [2]: 78.4 ± 4.2% | IC50 (Mus musculus, L1210, no AGP): 2400 nM

COc1ccc(CNc2nc(NCCO)nc3c(NCc4ccc(OC)cc4)nc(NCCO)nc23)cc1 [NU3099, 2,6-Di-(2-hydroxyethyl)amino-4,8-di-[4-methoxybenzyl]-aminopyrimidopyrimidine]
% Inhibition of 3H-thymidine uptake, No AGP (1 μM compound, no AGP, 1 µM): 52% and 62% and 65% | % Inhibition of 3H-thymidine uptake, +5 mg/ml AGP (+5 mg/ml AGP): 30% and 35% | inhibition at 0.1 µM (Mus musculus, no AGP): 5% | inhibition at 1 µM [2]: 54% | IC50 (Mus musculus, L1210, no AGP): 930 nM | IC50 (no AGP): 1200 nM

CC1(C)OC[C@@H](COc2nc(NCc3ccccc3)c3nc(OC[C@@H]4COC(C)(C)O4)nc(NCc4ccccc4)c3n2)O1 [NU3078, (R,R)-2,6-bis(2',2'-Dimethyl-1',3'-dioxolane-4'-methoxy)-4,8-dibenzylamino pyrimidopyrimidine]
% Inhibition of 3H-thymidine uptake, No AGP (10 μM compound, no AGP): 46 ± 3%

OCCNc1nc(NCc2ccccc2)c2nc(NCCO)nc(NCc3ccccc3)c2n1 [NU3101, 2,6-Di-(2-hydroxyethylamino)-4,8-dibenzylaminopyrimidopyrimidine]
inhibition at 0.1 µM (Mus musculus, no AGP): 2% | inhibition at 1 µM [2]: 58%

COc1ccc(CNc2nc(OCCCO)nc3c(NCc4ccc(OC)cc4)nc(OCCCO)nc23)cc1 [NU3097, 2,6-di(-3-hydroxypropoxy)-4,8-di(-4-methoxybenzylamino)pyrimidopyrimidine]
% Inhibition of 3H-thymidine uptake, No AGP (1 μM compound, no AGP, 1 µM): 62% | inhibition at 1 µM [4]: 21% | inhibition at 1 µM [5]: 49% | inhibition at 1 µM [2]: 61 ± 8% | IC50 (Mus musculus, L1210, no AGP): 460 nM | IC50 (no AGP): 820 nM

COc1ccc(CN(C)c2nc(OCCCO)nc3c(N(C)Cc4ccc(OC)c(OC)c4)nc(OCCCO)nc23)cc1OC [NU3096, 2,6-di(-3-hydroxypropoxy)-4,8-bis[(-3,4-dimethoxybenzyl)-N-methylamino]pyrimidopyrimidine]
inhibition at 1 µM [2]: 54 ± 2% | IC50 (Mus musculus, L1210, no AGP): 750 nM

COc1ccc(CNc2nc(N(CCO)CCO)nc3c(NCc4ccc(OC)c(OC)c4)nc(N(CCO)CCO)nc23)cc1OC [NU3084, 2,6-bis(Diethanolamino)-4,8-bis[(3',4'-dimethoxybenzyl)amino]pyrimidopyrimidine]
% Inhibition of 3H-thymidine uptake, No AGP (1 μM compound, no AGP, 1 µM): 67 ± 10% | inhibition at 1 µM [4]: 4% | inhibition at 1 µM [5]: 64 ± 3% | inhibition at 1 µM [2]: 74 ± 16% | inhibition at 10 µM [4]: 5% | inhibition at 10 µM [5]: 93 ± 10% | inhibition at 10 µM [2]: 98 ± 5% | IC50 (Mus musculus, L1210, no AGP): 250 nM | Effect of AGP on the inhibition of thymidine uptake: no significant reduction | Potency as inhibitor relative to dipyridamole (presence and absence of AGP, or of 40 mg/ml human serum albumin): more potent inhibitors than dipyridamole

OCCN(CCO)c1nc(N2CCc3ccccc3C2)c2nc(N(CCO)CCO)nc(N3CCc4ccccc4C3)c2n1 [NU3080, 2,6-bis-Diethanolamino-4,8-di-(N-1,2,3,4-tetrahydroisoquinolyl)pyrimidopyrimidine]
inhibition at 1 µM [2]: 72 ± 22% | inhibition at 10 µM [4]: 31% | inhibition at 10 µM [5]: 69% | inhibition at 10 µM [2]: 100% | IC50 (Mus musculus, L1210, no AGP): 720 ± 380 nM

CCCOc1nc(N2CCCCC2)c2nc(OCCC)nc(N3CCCCC3)c2n1 [NU3064, 2,6-Di(n)propoxy-4,8-dipiperidinopyrimidopyrimidine]
inhibition at 10 µM [2]: 37 ± 11% | inhibition at 100 µM [2]: 60 ± 9% | IC50 (Mus musculus, L1210, no AGP): 52000 nM

CN(Cc1ccccc1)c1nc(OCCCO)nc2c(N(C)Cc3ccccc3)nc(OCCCO)nc12 [NU3088, 2,6-Di(3'-hydroxypropoxy)-4,8-di[(N-benzylmethyl)amino]pyrimidopyrimidine]
% Inhibition of 3H-thymidine uptake, No AGP (1 μM compound, no AGP): 52 ± 19% | % Inhibition of 3H-thymidine uptake, No AGP (10 μM compound, no AGP, 10 µM): 100% and 77% | IC50 (no AGP): 1440 nM

OCCCOc1nc(N2CCCCC2)c2nc(OCCCO)nc(N3CCCCC3)c2n1 [NU3085, 2,6-Di(3'-hydroxypropoxy)-4,8-dipiperidinopyrimidopyrimidine]
% Inhibition of 3H-thymidine uptake, No AGP (10 μM compound, no AGP, 10 µM): 100% and 76% | inhibition at 1 µM [2]: 35 ± 5% | IC50 (Mus musculus, L1210, no AGP): 2360 nM

OCCN(CCO)c1nc(NCc2ccc(Cl)cc2)c2nc(N(CCO)CCO)nc(NCc3ccc(Cl)cc3)c2n1 [NU3083, 2,6-bis(Diethanolamino)-4,8-di[(4'-chlorobenzyl)amino]pyrimido pyrimidine]
inhibition at 1 µM [2]: 53 ± 15% | inhibition at 10 µM [2]: 92 ± 14% | IC50 (Mus musculus, L1210, no AGP): 1110 nM

CC(C)Oc1nc(N2CCCCC2)c2nc(OC(C)C)nc(N3CCCCC3)c2n1 [NU3069, 2,6-Di-iso-propoxy-4,8-dipiperidinopyrimidopyrimidine]
inhibition at 10 µM [1]: 23 ± 12% | inhibition at 100 µM [1]: 64 ± 6%

CN(Cc1ccccc1)c1nc(OCCO)nc2c(N(C)Cc3ccccc3)nc(OCCO)nc12 [NU3103, 2,6-Di-(2-hydroxyethoxy)-4,8-di-(N-benzyl-N-methyl)aminopyrimidopyrimidine]
% Inhibition of 3H-thymidine uptake, No AGP [3]: 18% | % Inhibition of 3H-thymidine uptake, No AGP (1 μM compound, no AGP, 1 µM): 50% and 60% | % Inhibition of 3H-thymidine uptake, No AGP (10 μM compound, no AGP, 10 µM): 84% | % Inhibition of 3H-thymidine uptake, +5 mg/ml AGP (+5 mg/ml AGP): 21% and 23% | inhibition at 0.1 µM (Mus musculus, no AGP): 12% | inhibition at 10 µM [2]: 90% | IC50 (no AGP): 1010 nM and 800 nM

CCCOc1nc(N(C)Cc2ccccc2)c2nc(OCCC)nc(N(C)Cc3ccccc3)c2n1 [NU3091, 2,6-Di(n)propoxy-4,8-di[(N-benzylmethyl)amino]-pyrimidopyrimidine]
% Inhibition of 3H-thymidine uptake, No AGP (1 μM compound, no AGP): Inactive | inhibition at 10 µM [2]: 8.2 ± 1.1%

CC(=O)COc1nc(N2CCCCC2)c2nc(OCC(C)=O)nc(N3CCCCC3)c2n1 [NU3066, 2,6-Di(-2-oxopropoxy)-4,8-dipiperidinopyrimidopyrimidine]
inhibition at 10 µM [1]: 58 ± 3%
